This note sets out measurements from patent publication US9155691B2, “Composition for reducing skin wrinkles including PDE5 inhibitor” (SK Chemicals Co., Ltd., priority 2010, dated 2015).

The test system of series [1] is UVB-induced skin wrinkles of hairless mice. The series is described as follows: Wrinkle reduction in the skin of UVB-irradiated hairless mice (photographs). The series is classed as in vivo. On the procedure:
An examination was made as to whether the PDE5 inhibitors can substantially reduce skin wrinkles of animal models. Hairless mice, aged 7 weeks, were irradiated with UVB (290-320 nm, 312 nm) to induce wrinkles. The compound or the control was applied to each mouse and its influence on the induced wrinkles was evaluated. More specifically, the mice were irradiated with 60 mJ/cm^2 (1 minimal […] dose (MED)) for 3 days weekly during the first and second week after wrinkling, 120 mJ/cm^2 (2 MED) for 3 days during the third week after wrinkling, 180 mJ/cm^2 (3 MED) for 3 days during the fourth week after wrinkling, 240 mJ/cm^2 (4 MED) for 3 days weekly during the fifth to eighth week after wrinkling, and 240 mJ/cm^2 (4 MED) for 5 days weekly during the ninth to fifteenth week after wrinkling. During the sixteenth and seventeenth week after wrinkling, about 0.5 ml of squalene-OOH, an oxidation product of squalene by UV irradiation, was applied once using a brush to induce deeper wrinkles. […]

The test system of series [2] is Normal human dermal fibroblasts (NHDFs). In words: Stimulatory effect on collagen production: synthesis rate of procollagen type I (C-peptide EIA, corrected for total protein). The series is classed as cell-based. The settings on record: NHDF, 48 hr, negative control 100.0±0.0%. Here is the method: In this example, stimulatory effects of major PDE5 inhibitors on collagen production were investigated in order to determine whether the PDE5 inhibitors are effective in reducing skin wrinkles. Collagen is a very important substance involved in the regulation of wrinkles. Collagen disruption is known to lead to the formation of wrinkles. Collagen production plays an important role in the reduction of wrinkles.
Normal human dermal fibroblasts (NHDFs) were cultured in a complete medium. 400 μl (1×10^5 cells) of the NHDF culture was placed in each well of a 48-well plate and were cultured in an incubator (MCO-20 AIC, Sanyo, Japan) at 37 C.° and 5% CO2 for 24 hr. After completion of culturing, the culture fluid was discarded from the wells. 500 μl of D-phosphate buffered saline (D-PBS) was added to each well for washing. Thereafter, 800 μl of a test substance and 800 μl of a positive control were added to the corresponding wells. 800 μl of a serum-free medium supplemented with DMSO was added to the wells of a negative control. The culture was continued in an incubator at 37 C.° and 5% CO2 for 48 hr. After culturing was completed, the culture fluids were collected from the wells, followed by centrifugation (25 C.°, 3,000 rpm, 10 min). The supernatants were used for the quantification of procollagen type I. After 1 mL of D-PBS was added to each well of the plate, from which the culture fluids had been removed, for washing, 30 μl of a cell lysis buffer (Lot No.: 41, Cell Signaling Technology, U.S.A) was added to each well. The plate was frozen during storage in a deep freezer (DFU-657CL, Operon, Korea) at −70 C.° for 2 hr, and thawed at room temperature. The freeze-thaw procedure was repeated twice to lyse the cells. Each of the cell lysates was collected and centrifuged (Micro 17TR, Hanil Science Industrial, Korea) (4 C.°, 13000 rpm, 30 min). The supernatant was used for total protein quantification.
40 μl of the obtained supernatant was added to each well of a 96-well plate. A standard solution from a BCA protein assay kit (Lot No.: KK140637, Pierce Biotechnology Inc., USA) was diluted stepwise to different concentrations (250, 125, 50, 25, 5 and 0 μg/mL). 40 μl of the dilute solution was added to each well. 160 μl of a reagent mixture from the assay kit was added to each well. Thereafter, the resulting mixtures were allowed to react in an incubator (NB-201V, n-Biotec, Korea) at 60 C.° for 30 min. After completion of the reaction, the absorbance of each well was measured at 562 nm using an ELISA reader (PowerWave XS, BioTek Instruments, Inc., USA). The amounts of total proteins in the wells containing the test substance, the positive control and the negative control were determined by substituting the absorbance value of each well into the standard curve equation.
100 μl of the obtained supernatant was added to each well of a 96-well plate from a procollagen type I C-peptide EIA kit (Lot No.: AB01520C, Takara Bio Inc., Japan). A standard solution from the kit was diluted stepwise to different concentrations (640, 320, 160, 80, 40, 20, 10 and 0 ng/mL). 100 μl of the dilute solution was added to each well. Thereafter, the resulting mixtures were allowed to react in an incubator at 37 C.° for 2 hr. The reaction solution was discarded from each well. The well was washed with 400 μl of PBS (×3). 100 μl of solution 1 from the kit was added to each well. The reaction was carried out at 37 C.° for 1 hr. After completion of the reaction, the reaction solution was discarded from each well and 400 μl of PBS was added to the well for washing (×4). 100 μl of a tetramethylbenzidine (TMBZ) substrate solution from the kit was added to each well. The reaction was carried out at 30 C.° for 15 min. Thereafter, 100 μl of 1 N H2SO4 solution was added to each well to stop the reaction. The absorbance of each well was measured at 450 nm using an ELISA reader. […]

[3] abbreviates: 10 mM (about 5%), applied to skin twice daily for 14 days, n=7.

Take `CC1=C(/C=C/C(C)=C/C=C/C(C)=C/C(=O)O)C(C)(C)CCC1` [retinoic acid]: in series [1] (0.05%, applied to skin twice, later once daily, n=6), the “Skin condition after application (cornified layers)” value is “Cornified layers were formed and continuously peeled”.
With `CCCc1nn(C)c2c(=O)[nH]c(-c3cc(S(=O)(=O)N4CCN(C)CC4)ccc3OCC)nc12` [sildenafil], the “Synthesis rate of procollagen type I” value in series [2] (10 nM, mean of three repeats) is given as 108.6±8.1%. Further, the “Synthesis rate of procollagen type I” value in series [2] (100 nM, p<0.01) was found to be 160.7±12.1%. Besides, in series [1] (setting [3]), the “Skin condition after application” value is “gradually became clean” and the “Wrinkle reduction (skin photographs)” value is “Wrinkle reduction was observed”.
`CN1CC(=O)N2[C@H](c3ccc4c(c3)OCO4)c3[nH]c4ccccc4c3C[C@@H]2C1=O` [tadalafil]: the “Synthesis rate of procollagen type I” value in series [2] (10 nM, mean of three repeats) came to 147.2±8.1%; in series [2] (100 nM, p<0.01), 174.7±10.2%.
In the same order, the values of `CCCc1nc(C)c2c(=O)[nH]c(-c3cc(S(=O)(=O)N4CCN(CC)CC4)ccc3OCC)nn12` [vardenafil] are 140.7±7.8% and 162.7±10.0%.
